From US10765662B2, “Mono- or di-substituted indole derivatives as dengue viral replication inhibitors” (Janssen Pharmaceuticals, Inc., priority 2015, dated 2020)

Experiments:
[1] = tested on: DENV-2 16681 strain labeled with enhanced green fluorescent protein; assay: DENV-2 antiviral assay (eGFP fluorescence read-out in Vero cells); assay type: cell-based, Dengue virus; settings: DENV-2 16681 eGFP, MOI 0.5, 3 days
Method: The antiviral activity of all the compounds of the invention was tested against the DENV-2 16681 strain which was labeled with enhanced green fluorescent protein (eGPF). The culture medium consists of minimal essential medium supplemented with 2% of heat-inactivated fetal calf serum, 0.04% gentamycin (50 mg/mL) and 2 mM of L-glutamine. Vero cells, obtained from ECACC, were suspended in culture medium and 25 μL was added to 384-well plates (2500 cells/well), which already contain the antiviral compounds. Typically, these plates contain a 5-fold serial dilution of 9 dilution steps of the test compound at 200 times the final concentration in 100% DMSO (200 nL). […] Finally, each plate contains wells which are assigned as virus controls (containing cells and virus in the absence of compound), cell controls (containing cells in the absence of virus and compound) and medium controls (containing medium in the absence of cells, virus and compounds). To the wells assigned as medium control, 25 μL of culture medium was added instead of Vero cells. Once the cells were added to the plates, the plates were incubated for 30 minutes at room temperature to allow the cells to distribute evenly within the wells. Next, the plates were incubated in a fully humidified incubator (37° C., 5% CO2) until the next day. Then, DENV-2 strain 16681, labeled with eGFP, was added at a multiplicity of infection (MOI) of 0.5. Therefore, 15 μL of virus suspension was added to all the wells containing test compound and to the wells assigned as virus control. In parallel, 15 μL of culture medium was added to the medium and cell controls. Next, the plates were incubated for 3 days in a fully humidified incubator (37° C., 5% CO2). At the day of the read out, the eGFP fluorescence was measured using an automated fluorescence microscope at 488 nm (blue laser). Using an in-house LIMS system, inhibition dose response curves for each compound were calculated and the half maximal effective concentration (EC50) was determined. Therefore, the percent inhibition (I) for every test concentration is calculated using the following formula: I=100*([…])/(SVC−SCC); ST, SCC and SVC are the amount of eGFP signal in the test compound, cell control and virus control wells, respectively. The EC50 represents the concentration of a compound at which the virus replication is inhibited with 50%, as measured by a 50% reduction of the eGFP fluorescent intensity compared to the virus control. The EC50 is calculated using linear interpolation (Table 1).

[2] = tested on: Vero cells; assay: in vitro; assay type: cell-based; settings: African green monkey
Method: (§1) In parallel, the toxicity of the compounds was assessed on the same plates. Once the read-out for the eGFP signal was done, 40 μL of ATPlite, a cell viability stain, was added to all wells of the 384-well plates. ATP is present in all metabolically active cells and the concentration declines very rapidly when the cells undergo necrosis or apoptosis. The ATPLite assay system is based on the production of light caused by the reaction of ATP with added luciferase and D-luciferin. The plates were incubated for 10 minutes at room temperature. Next, the plates were measured on a ViewLux. The half maximal cytotoxic concentration (CC50) was also determined, defined as the concentration required to reduce the luminescent signal by 50% compared to that of the cell control wells. Finally, the selectivity index (SI) was determined for the compounds, which was calculated as followed: SI=CC50/EC50.

[3] = in vitro; assay type: cell-based; settings: African green monkey, CC50
Method: as §1

[4] = Dengue virus, DENV2, Vero, 72 h

Structure (SMILES)	EC50 [1] [µM]	CC50 [2] [µM]	EC50 [1, 4] [µM]	CC50 [3] [µM]
COc1cc(NC(C(=O)c2c[nH]c3cc(OC)ccc23)c2ccc(Cl)cc2OCCO)cc(S(C)(=O)=O)c1 (single isomer, unassigned) [Compound 3B, 2-(4-chloro-2-(2-hydroxyethoxy)phenyl)-1-(6-methoxy-1H-indol-3-yl)-2-((3-methoxy-5-(methylsulfonyl)phenyl)amino)ethanone]	0.056	13		
COc1cc(NC(C(=O)c2c[nH]c3cc(Cl)ccc23)c2ccc(Cl)cc2OCCO)cc(S(C)(=O)=O)c1 (single isomer, unassigned) [Compound 2B, 1-(6-chloro-1H-indol-3-yl)-2-(4-chloro-2-(2-hydroxyethoxy)phenyl)-2-((3-methoxy-5-(methylsulfonyl)phenyl)amino)ethanone]	0.0049	11		
COc1cc(NC(C(=O)c2c[nH]c3cc(F)c(F)cc23)c2ccc(Cl)cc2OCCO)cc(S(C)(=O)=O)c1 (single isomer, unassigned) [Compound 7B, 2-(4-chloro-2-(2-hydroxyethoxy)phenyl)-1-(5,6-difluoro-1H-indol-3-yl)-2-((3-methoxy-5-(methylsulfonyl)phenyl)amino)ethanone]	0.005	9.2		
COc1cc(NC(C(=O)c2c[nH]c3cc(OC)c(C)cc23)c2ccc(Cl)cc2OCCO)cc(S(C)(=O)=O)c1 (single isomer, unassigned) [Compound 6B, 2-(4-chloro-2-(2-hydroxyethoxy)phenyl)-2-((3-methoxy-5-(methylsulfonyl)phenyl)amino)-1-(6-methoxy-5-methyl-1H-indol-3-yl)ethanone]	0.036	5.9		
COc1cc(NC(C(=O)c2c[nH]c3ccc(OC(F)(F)F)cc23)c2ccc(Cl)cc2OCCO)cc(S(C)(=O)=O)c1 (racemic) [Compound 10, 2-(4-chloro-2-(2-hydroxyethoxy)phenyl)-2-((3-methoxy-5-(methylsulfonyl)phenyl)amino)-1-(5-(trifluoromethoxy)-1H-indol-3-yl)ethanone]			0.0001	> 2.4
COc1cc(NC(C(=O)c2c[nH]c3c(C)c(F)ccc23)c2ccc(Cl)cc2OCCO)cc(S(C)(=O)=O)c1 (single isomer, unassigned) [Compound 4B, 2-(4-chloro-2-(2-hydroxyethoxy)phenyl)-1-(6-fluoro-7-methyl-1H-indol-3-yl)-2-((3-methoxy-5-(methylsulfonyl)phenyl)amino)ethanone]	0.011	5.7		
COc1cc(NC(C(=O)c2c[nH]c3cc(F)c(C)cc23)c2ccc(Cl)cc2OCCO)cc(S(C)(=O)=O)c1 (single isomer, unassigned) [Compound 8B, 2-(4-chloro-2-(2-hydroxyethoxy)phenyl)-1-(6-fluoro-5-methyl-1H-indol-3-yl)-2-((3-methoxy-5-(methylsulfonyl)phenyl)amino)ethanone]	0.0017	> 2.4		
COc1cc(NC(C(=O)c2c[nH]c3cc(OC)c(OC(F)(F)F)cc23)c2ccc(Cl)cc2OCCO)cc(S(C)(=O)=O)c1 (single isomer, unassigned) [Compound 11A, 2-(4-chloro-2-(2-hydroxyethoxy)phenyl)-2-((3-methoxy-5-(methylsulfonyl)phenyl)amino)-1-(6-methoxy-5-(trifluoromethoxy)-1H-indol-3-yl)ethanone]	0.0015			> 2.3
COc1cc(NC(C(=O)c2c[nH]c3cc(OC)c(C)cc23)c2ccc(Cl)cc2OCCO)cc(S(C)(=O)=O)c1 (racemic) [Compound 6, 2-(4-chloro-2-(2-hydroxyethoxy)phenyl)-2-((3-methoxy-5-(methylsulfonyl)phenyl)amino)-1-(6-methoxy-5-methyl-1H-indol-3-yl)ethanone]			0.00037	4.7
COc1cc(NC(C(=O)c2c[nH]c3c(C)cc(OC(F)(F)F)cc23)c2ccc(Cl)cc2OCCO)cc(S(C)(=O)=O)c1 (single isomer, unassigned) [Compound 12A, 2-(4-chloro-2-(2-hydroxyethoxy)phenyl)-2-((3-methoxy-5-(methylsulfonyl)phenyl)amino)-1-(7-methyl-5-(trifluoromethoxy)-1H-indol-3-yl)ethanone]	0.005			2.5
COc1cc(NC(C(=O)c2c[nH]c3cc(F)c(C)cc23)c2ccc(Cl)cc2OCCO)cc(S(C)(=O)=O)c1 (racemic) [Compound 8, 2-(4-chloro-2-(2-hydroxyethoxy)phenyl)-1-(6-fluoro-5-methyl-1H-indol-3-yl)-2-((3-methoxy-5-(methylsulfonyl)phenyl)amino)ethanone]			0.00027	2.8
COc1cc(NC(C(=O)c2c[nH]c3c(C)cc(OC(F)(F)F)cc23)c2ccc(Cl)cc2OCCO)cc(S(C)(=O)=O)c1 (racemic) [Compound 12, 2-(4-chloro-2-(2-hydroxyethoxy)phenyl)-2-((3-methoxy-5-(methylsulfonyl)phenyl)amino)-1-(7-methyl-5-(trifluoromethoxy)-1H-indol-3-yl)ethanone]			0.0001	2.5
COc1cc(NC(C(=O)c2c[nH]c3cc(F)ccc23)c2ccc(Cl)cc2OCCO)cc(S(C)(=O)=O)c1 (single isomer, unassigned) [Compound 1B, 2-(4-chloro-2-(2-hydroxyethoxy)phenyl)-1-(6-fluoro-1H-indol-3-yl)-2-((3-methoxy-5-(methylsulfonyl)phenyl)amino)ethanone]	0.0035	8.4		
COc1cc(NC(C(=O)c2c[nH]c3c(C)c(Cl)ccc23)c2ccc(Cl)cc2OCCO)cc(S(C)(=O)=O)c1 (single isomer, unassigned) [Compound 5A, 2-(4-chloro-2-(2-hydroxyethoxy)phenyl)-1-(6-chloro-7-methyl-1H-indol-3-yl)-2-((3-methoxy-5-(methylsulfonyl)phenyl)amino)ethanone]	0.0084			5
COc1cc(NC(C(=O)c2c[nH]c3ccc(OC(F)(F)F)cc23)c2ccc(Cl)cc2OCCO)cc(S(C)(=O)=O)c1 (single isomer, unassigned) [Compound 10A, 2-(4-chloro-2-(2-hydroxyethoxy)phenyl)-2-((3-methoxy-5-(methylsulfonyl)phenyl)amino)-1-(5-(trifluoromethoxy)-1H-indol-3-yl)ethanone]	0.0029			2.3
COc1cc(NC(C(=O)c2c[nH]c3ccc(C(F)(F)F)cc23)c2ccc(Cl)cc2OCCO)cc(S(C)(=O)=O)c1 (single isomer, unassigned) [Compound 9A, 2-(4-chloro-2-(2-hydroxyethoxy)phenyl)-2-((3-methoxy-5-(methylsulfonyl)phenyl)amino)-1-(5-(trifluoromethyl)-1H-indol-3-yl)ethanone]	0.0019	11		
COc1cc(NC(C(=O)c2c[nH]c3cc(F)ccc23)c2ccc(Cl)cc2OCCO)cc(S(C)(=O)=O)c1 (racemic) [Compound 1, 2-(4-chloro-2-(2-hydroxyethoxy)phenyl)-1-(6-fluoro-1H-indol-3-yl)-2-((3-methoxy-5-(methylsulfonyl)phenyl)amino)ethanone]			0.00043	5.1
COc1cc(NC(C(=O)c2c[nH]c3cc(F)c(F)cc23)c2ccc(Cl)cc2OCCO)cc(S(C)(=O)=O)c1 (racemic) [Compound 7, 2-(4-chloro-2-(2-hydroxyethoxy)phenyl)-1-(5,6-difluoro-1H-indol-3-yl)-2-((3-methoxy-5-(methylsulfonyl)phenyl)amino)ethanone]			0.00026	2.8
